One molecule from patent US12667569B2, “Use of sepiapterin and metabolites thereof to treat radiation exposure” (PTC Therapeutics MP, Inc., priority 2019, dated 2026) can be followed below.

Each structure is given as a SMILES string.

Type in all cases: in vivo, mice
The subject of experiment [1] is exosomal miRNAs. Kind of experiment: Serum exosomal miRNA expression after irradiation. The note with it: 30 days after IR; SP-treated vs vehicle-treated. The procedure: Blood was collected by cardiac puncture using EDTA vials. Blood samples were centrifuged 3,000×g for 25 minutes, and plasma fraction was aliquoted and saved in a vapor phase of liquid nitrogen. Exosomes were isolated from the plasma of mice at the time points shown in FIGS. 6A-6C using an Exosome isolation kit from 101Bio. Exosome concentrations were quantified by EXOCET Exosome Quantitation Kit (System Biosciences). Equal exosome number from 5 animals were combined for each time point, and total exosomal RNA was extracted by using miRNeasy Micro Kit (QIAGEN). For the miRNAs expression profiling the miRCURY LNA™ Universal RT microRNA PCR assay (QIAGEN) and ExiLENT SYBR® Green Maser Mix (QIAGEN) were used. The initial estimation of exosomal miRNAs expression was performed by using Serum/Plasma LNA™ miRNA PCR Panel (Cat. #YAHS-106Y. QIAGEN) on the QuantStudio 5 RT-PCR machine (Applied Biosystems).
The first group included let-7a-5p, miR-1, miR-106b-3p, miR-106b-5p, miR-126-3p, miR-181a-5p, miR-335-3p, and miR-335-5p. […] The second group included let-7g-5p, let-7i-5p, and miR-16-5p. There were no significant differences between males and females both in terms of exosomal miRNA expression altered by IR or the effects of sepiapterin on miRNA expression.

In experiment [2] the test system is cytokines' mRNAs in heart tissue. In words: Cytokine mRNA expression (qPCR) in heart tissue after irradiation. The note with it: 8 days, 30 days, 16 weeks after IR, SP vs vehicle. The method, then: Total RNA was isolated from the lung and heart tissue samples following the manufacturers instructions with the RNeasy Mini kit (Qiagen). The RNA concentration was evaluated by using a NanoDrop ND-1000 spectrophotometer (Thermo Scientific). RNA purity was assessed by the ratios of A260/A280 and A260/A230. RNA integrity was evaluated by the ratio of 28S/18S ribosomal RNA (rRNA) and the RNA integrity number (RIN) using an Agilent 2100 BioAnalyzer (Agilent Technologies). cDNA synthesis and genomic DNA elimination were performed by using RT2 First Strand Kit (QIAGEN). Samples were amplified using RT2 SYBR® Green qPCR Mastermix probes from QIAGEN on the QuantStudio 5 RT-PCR machine (Applied Biosystems). The following RT2 qPCR Primer Assays (QIAGEN) were used: Mouse Actin-β (NM_007393), Mouse Bmp2 (NM_007553), Mouse Ccl2 (NM_011333), Mouse Ctgf (NM_010217), Mouse IL-1β (NM_008361), Mouse IL-6 (NM_031168), Mouse IL-10 (NM_010548), Mouse IL-17α (NM_010552), Mouse Runx2 (NM_001145920), Mouse Spp1 (NM_001204201), Mouse TGF-β1 (NM_011577), Mouse Trim72 (NM_001079932).
On the technique in general: Real-time PCR tracks product formation cycle by cycle.

Experiment [3] has as its system plasma IL-6, fibrinogen, neutrophil elastase, C-reactive protein. In words: Plasma ELISA of IL-6, fibrinogen, neutrophil elastase, C-reactive protein after irradiation. The procedure:
At the time of sacrifice, blood was obtained by heart puncture into EDTA containing tubes and centrifuged at 3000 rpm for 25 mins to isolate the plasma. The following ELISA plates from Abcam were used for analysis: fibrinogen (ab213478), neutrophil elastase (ab252356), C-reactive protein (ab157712) and IL-6 (ab100713). Plasma samples were processed and ELISA kits were run according to manufacturer recommendations. All cytokines were reported with an absolute unit. Key molecular players of the coagulation cascade like tissue factor, thrombin, and fibrinogen are epidemiologically and mechanistically linked with an inflammatory component. Genetic and pharmacologic studies have unraveled pivotal roles for fibrinogen in determining the extent of local or systemic inflammation. Neutrophil elastase, a serine protease present in the azurophil granules of neutrophils, is released in an inflammatory state and disintegrates extracellular matrices due to its low substrate specificity, resulting in tissue injury. Neutrophil elastase is one of the most destructive enzymes in the body. Once unregulated, this enzyme disturbs the function of the lung permeability barrier and induces the release of pro-inflammatory cytokines with stimulation of acute lung injury. […] High levels of IL-6 in blood plasma may exacerbate the inflammatory response in the lung tissue, which ultimately causes IL-6 leakage to bronchoalveolae and further lung damage. High levels of IL-6 in the lung tissue may attract more inflammatory cells such as neutrophils, monocytes, macrophages to the injured local lung which ultimately causes serious damage to the lung and leads to chronic fibrosis. An acute raise of IL-6 in plasma can lead to increases in C Reactive Protein (CRP). C Reactive Protein (CRP) is produced by the liver and is a biomarker for general stress response to inflammation or infectious agents. It was shown that serum CRP level may be an effective indicator for predicting the occurrence of radiation pneumonitis and valuable factor for evaluating radiation-induced lung-injury extent.
(ELISA stands for enzyme-linked immunosorbent assay.)

As for `C[C@H](O)C(=O)C1=Nc2c([nH]c(N)nc2=O)NC1` [SP, Sepiapterin], in experiment [1], the “exosomal expression of let-7a-5p, miR-1, miR-106b-3p, miR-106b-5p, miR-126-3p, miR-181a-5p, miR-335-3p, miR-335-5p” value is on record as “significantly lower in vehicle-treated animals comparing with SP-treated animals”. In addition, the “exosomal expression of let-7g-5p, let-7i-5p, miR-16-5p” value in experiment [1] was “significantly higher in vehicle-treated animals comparing with SP-treated animals”. For the same molecule, the “expression of all evaluated cytokines (Bmp2, Ccl2, Ctgf, IL-1β, IL-6, IL-10, IL-17A, IL-33, Runx2, Spp2, TGF-β1, Trim72)” value in experiment [2] is “no significant difference in expression between Vehicle-treated and SP-treated groups”. Moreover, the “plasma level of IL-6” value came out at 97.00 ± 45.71 pg/mL in experiment [3] (4 days after IR, vehicle 304.05±153.23); 49.85 ± 39.36 pg/mL in experiment [3] (8 days after IR, vehicle 606.09±72.72); 40.06 ± 43.26 pg/mL in experiment [3] (180 days after IR, vehicle 197.22±55.55). The “plasma level of fibrinogen” value in experiment [3] (8 days after IR, vehicle 948.77±98.54) came out at 332.38 ± 109.02 µg/mL. The “plasma level of neutrophil elastase” value in experiment [3] (180 days after IR, vehicle 25.21±6.54) turned out to be 12.15 ± 2.87 ng/mL. The “plasma C reactive protein” value in experiment [3] (any time-point after IR, SP vs vehicle) is “did not demonstrate significant difference”.
